Assay results as given in PMC10070186, “Unusual peptide-binding proteins guide pyrroloindoline alkaloid formation in crocagin biosynthesis” (Nature Chemistry, 2023).
“Also recorded” adds a separate entry of the source.

Experiments:
[1] = tested on: CgnD; experiment: Labeling of CgnD with PMSF (LC-MS); assay type: biochemical, Chondromyces crocatus CM c5; settings: 10 µM CgnD, 10-fold excess PMSF, room temperature, 10 min
Procedure: All structural images portrayed were rendered in PyMOL (The PyMOL Molecular Graphics System Version 1.8.6.0, Schrödinger, LLC).
Purified, lyophilized 3a/b (see above) was dissolved in 20 mM sodium phosphate pH 7.2 containing 5%
D2O. A similar sample of unmodified CgnA was analyzed for comparison. 1D 1H, 2D {1H,1H} NOESY, TOCSY and DQF-COSY and 2D {13C,1H} HSQC spectra were recorded for each sample on a Bruker AVANCE IIIHD/Ultrashield 600 spectrometer equipped with a TCI cryoprobe using Bruker TopSpin 3.5 software. After excluding peaks from unmodified CgnA in the modified sample, the assignments of the C-terminal residues of the modified CgnA species were made using COSY, TOCSY and inter - residue NOE cross peaks using CCPNMR analysis assign v3. 13C shifts were identified from the HSQC spectra where sensitivity allowed. The majority of the expected resonances were easily identified, but the near-degeneracy of the former tyrosine Hα and Hβ shifts meant that the nOe cross peaks required to identify the stereochemistry at the tyrosine Cβ were not resolved. Indeed, the observation of two separate […]
Phenylmethylsulfonylfluoride (PMSF) can selectively modifying the catalytic serine of serine hydrolases via the formation of a covalent bond with the protein and can therefore be detected even in denaturing LC-MS conditions by a positive mass shift corresponding to the compound[21]. […]

[2] = tested on: CgnB, CgnC and CgnE; experiment: In vitro processing of CgnA and variants by CgnB, CgnC and CgnE (LC-MS); assay type: biochemical, Chondromyces crocatus CM c5
Procedure: All biochemical reactions were performed in 150 mM NaCl, 10 mM HEPES, 0.5 mM TCEP, pH 7.4. For CgnA–CgnB–CgnC reactions, a mixture of 50 µM CgnA, 10 µM CgnB, 5 µM CgnC, 4 mM ascorbic acid, 2.5 mM FeCl2 and 1 mM 2-oxoglutaric acid was incubated at 37 °C for 2 h. For CgnA–CgnB–CgnC–CgnE reactions, a mixture of 50 µM CgnA, 10 µM CgnB, 5 µM CgnC, 5 µM CgnE, 4 mM ascorbic acid, 2.5 mM FeCl2 and 1 mM 2-oxoglutaric acid was incubated at 37 °C for 2 h. The standard reaction volume was 50 µl. Proteins were precipitated by adding 50% acetonitrile and freezing the mixture at −80 °C for 2 h prior to liquid chromatography and mass spectrometry (LC-MS) analysis.

[3] = molecular target: CgnC; experiment: MST binding of CgnA to CgnC; design: species or system Chondromyces crocatus CM c5; settings: CgnC titrated
Procedure: (§1) Supplementary Figure 13: Analysis of protein complexes using SEC and MST. a MST measurements to determine KDs of the protein pairs given. X/Y – Affinity of fluorescently labeled X to Y (titrated). + Z: Z was supplied at a constant, high concentration. […]
(§2) Both samples were incubated at room temperature for 10 min prior to LC-MS analysis.
(§3) Microscale Thermophoresis
(§4) MST binding affinity measurements were performed using a Monolith NT 115 system (Nanotemper Technologies) with MO.Control v1.6 software. Labeling of different proteins was performed using the Monolith Labeling Kit RED-NHS 2nd generation according to the manufacturer’s instructions. For this, a 10 µM dilution of the desired protein was prepared in the supplied labeling buffer NHS (130 mM NaHCO3, 50 mM NaCl, pH 8.2). To yield a 600 μM dye solution, 25 μL DMSO was added to dry powder. For the labeling procedure, 7 μL of the freshly prepared dye solution was mixed with 7 μL of […]

[4] = molecular target: CgnE; experiment: MST binding of CgnA (or leader peptide) to CgnE; design: species or system Chondromyces crocatus CM c5
Procedure: as §1, §2, §3, §4
Target sequence in this assay (as listed by the source): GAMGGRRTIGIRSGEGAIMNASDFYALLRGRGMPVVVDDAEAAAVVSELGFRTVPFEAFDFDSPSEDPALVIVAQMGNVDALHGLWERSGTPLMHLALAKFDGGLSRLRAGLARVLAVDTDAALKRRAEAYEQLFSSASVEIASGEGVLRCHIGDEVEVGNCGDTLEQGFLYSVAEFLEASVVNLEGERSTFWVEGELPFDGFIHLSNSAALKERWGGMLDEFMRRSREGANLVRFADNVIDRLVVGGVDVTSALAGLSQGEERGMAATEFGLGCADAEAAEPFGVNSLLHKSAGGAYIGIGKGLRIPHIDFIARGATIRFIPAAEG

[5] = molecular target: CgnD; experiment: MST binding to CgnD; design: species or system Chondromyces crocatus CM c5; settings: microscale thermophoresis
Target sequence in this assay (as listed by the source): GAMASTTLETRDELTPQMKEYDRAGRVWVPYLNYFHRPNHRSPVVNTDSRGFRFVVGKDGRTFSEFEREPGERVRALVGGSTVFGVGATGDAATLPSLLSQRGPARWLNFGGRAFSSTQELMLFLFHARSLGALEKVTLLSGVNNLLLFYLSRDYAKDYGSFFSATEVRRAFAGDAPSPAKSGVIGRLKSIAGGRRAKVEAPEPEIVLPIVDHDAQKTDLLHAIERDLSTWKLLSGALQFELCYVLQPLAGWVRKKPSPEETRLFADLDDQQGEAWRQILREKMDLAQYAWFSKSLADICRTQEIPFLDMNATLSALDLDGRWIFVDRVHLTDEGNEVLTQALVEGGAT

[6] = tested on: CgnB; experiment: MST binding of CgnA (or leader peptide) to CgnB; design: species or system Chondromyces crocatus CM c5
Procedure: as §1, §2, §3, §4

[7] = tested on: CgnE; experiment: ICP-MS iron binding to CgnE; design: species or system Chondromyces crocatus CM c5; settings: 5 mM fresh FeCl2, 30 min, PD10 desalting
Procedure: Inductively Couple Plasma-Mass Spectrometry
Experimental solutions were analysed using an Agilent 7500ce fitted with a self-aspire nebuliser tuned for a flow of 0.1 mL min-1 at the Scottish Universities Environmental Research Centre (SUERC).
Samples were initially diluted to a protein concentration of 2 µM in 0.8 M HNO3. CgnB was dialyzed 4 x for 1 h at a dilution of 1 : 5000 in buffer containing 100 mM EDTA prior to analysis. CgnE was incubated with freshly prepared FeCl2 for 30 min (5 mM final FeCl2 concentration) and then subjected to a PD10 desalting column in CgnE buffer before the protein was diluted in HNO3 for analysis. For Fe2+ analysis, flow in the collision cell was set to 2 mL min -1 of H. The metal concentration was calculated by reference to a three -standard calibration line. Each sample value was corrected for procedural blank containing ultrapure water and 0.8 M HNO 3.
CgnB and CgnE sequences were compared with TBLA STN[22] to whole-genome shotgun contigs of taxa listed in (Supplementary table 4). We have retrieved the corresponding genome segments and identified tandem appearances of homologous genes, as well as searched for candidate peptides in their genomic neigh borhood with custom Python and Perl scripts. Phylogenetic trees were constructed with RAxML[23] using the PROTGAMMAJTT model. Bootstrap values were computed using 100 bootstrap […]

[8] = tested on: CsrA; settings: in vitro; cited from earlier work
Text: Their biosynthesis begins with the ribosomal expression of a short gene to yield a precursor peptide that usually consists of an N-terminal ‘leader’ and a C-terminal ‘core’ peptide. While the leader peptide is important for substrate recognition by the enzyme(s) installing class-defining modifications, the core peptide is ultimately converted into the final product and can be extensively modified[17]–[19]. Fe ...

Chain of CgnC (as listed by the source): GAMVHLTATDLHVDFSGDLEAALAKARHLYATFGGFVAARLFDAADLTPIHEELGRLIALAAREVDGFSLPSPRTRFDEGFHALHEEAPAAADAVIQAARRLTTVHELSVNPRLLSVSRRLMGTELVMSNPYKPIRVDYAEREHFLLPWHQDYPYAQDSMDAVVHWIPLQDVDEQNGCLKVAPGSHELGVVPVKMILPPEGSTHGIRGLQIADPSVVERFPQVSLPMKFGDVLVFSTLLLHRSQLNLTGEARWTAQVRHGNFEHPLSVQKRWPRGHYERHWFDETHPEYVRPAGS

O=S(=O)(F)Cc1ccccc1 [phenylmethylsulfonyl fluoride]
covalent labeling of CgnD [1]: inability to label CgnD

Ile-Tyr-Trp [core peptide, three-amino-acid core peptide of CgnA (Ile-Tyr-Trp for crocagin)]
turnover of the core peptide with leader peptide in trans ([2]; CgnB–CgnC–CgnE reaction, leader peptide added in trans): marginal

MTMKKTIKQISAGDRSKKGNIYW [CgnA]
affinity of CgnA–CgnC [3]: No binding; also recorded: not CgnC, were able to bind CgnA
Kd ([4]; Monolith NT 115, for CgnA: CgnE titrated, three independent samples, mean ± SD, read-out: KD (affinity) to CgnE): 1800 nM
weaker binding to CgnE than CgnA ([4]; leader peptide vs CgnA): ~300 times
binding to CgnD [5]: unable to detect binding
processing by CgnB, CgnC and CgnE (product formation/turnover) ([2]; 50 µM CgnA, 10 µM CgnB, 5 µM CgnC, 5 µM CgnE, 4 mM ascorbic acid, 2.5 mM FeCl2, 1 mM 2-oxoglutaric acid, pH 7.4, 37 °C, 2 h, LC-MS): formation of a major product with high turnover; also recorded: consumption of CgnA (magenta) and the formation of a major product (+14 Da, blue) as well as minor products (+16 Da, green; +30 Da
product formation with CgnB and CgnC ([2]; 50 µM CgnA, 10 µM CgnB, 5 µM CgnC, cofactors, 37 °C, 2 h): two additional product peaks detected when compared to CgnA–CgnE or CgnA–CgnC reactions
product formation with CgnC and CgnE ([2]; CgnA + CgnC + CgnE with cofactors): formation of an additional, minor peak with a mass shift of +28 Da
product formation with CgnC and cofactors ([2]; CgnA + CgnC + FeCl2, ascorbic acid, α-ketoglutarate): a new peak with a mass suggestive of hydroxylation (+16 Da), but the predominant peak remained unmodified CgnA; also recorded: formation of a minor +16 Da species
product formation with CgnC, no cofactors ([2]; CgnA + CgnC without FeCl2, ascorbic acid and α-ketoglutarate): did not lead to observable product formation
product formation without CgnC ([2]; CgnA with CgnB, CgnE or both, LC-MS): did not result in any observable product peak
CgnA–CgnB interaction relative to CgnA–CgnE ([6]; MST KD 10.5 vs 1.8 µM): five times weaker
CgnA–CgnB KD relative to SPR value ([6]; MST vs surface plasmon resonance of ref 24): approximately one order of magnitude lower
Kd ([6]; MST, Monolith NT 115, RED-NHS label, CgnB titrated, three independent samples, mean ± SD, read-out: KD (affinity) of CgnA–CgnB): 10.5 µM
affinity of CgnA–CgnB in presence of CgnE ([6]; MST, CgnE 250 µM constant, CgnB titrated): No binding; also recorded: we did not observe binding

[Cl][Fe][Cl] [FeCl2]
iron bound to CgnE [7]: No iron could be detected

CC[C@H](C)[C@H](NC)C(=O)N[C@@H]1C(=O)N2[C@H](C(=O)O)[C@@H](OC(N)=O)[C@@H]3c4ccccc4N([C@@H]1c1ccc(O)cc1)[C@@H]32 [compound 1, crocagin A]
inhibition of CsrA [8]: inhibits
